Assay: In-vitro confocal microscopy of markers containing fluorescent amphiphiles in PBS
Format: physicochemical
Conditions: LAP:GTH with co-solvent (5% PC or 10% EtOH)
Experimental: DOPE-RhB was dissolved in EtOH or triglycerides and added to the formulations in amounts resulting in the desired final concentrations (˜1.3*10^−3 ug/uL) in formulations consisting of lactose acetate:propionate 1:1/lactose isobutyrate co-formulated with either 25 wt % EtOH or 40 wt % triglyceride (GTO/GTH), with or without 10 wt % EtOH or 5 wt % PC (˜240 uL formulations in total). The DOPE-RhB solutions were made from a motherstock of 1 mg/mL DOPE-RhB in EtOH with serial dilution into EtOH/triglyceride (GTO/GTH). The injected formulations were imaged in PBS in 8-well microscope slides under the confocal microscope. […]
Laser Scanning Confocal Microscopy was performed using a Leica TCS SP5 Scanning Laser Confocal Microscope operated using a 61× wet objective and a 561 nm excitation DPPS Laser. Samples (˜5-10 uL) were prepared in 8 well microscope slides containing PBS buffer and imaged on the same day to study the distribution of fluorescence signal within the material. In case of Rhodamine B, emission was detected between 575 and 674 nm, while in case of carboxy fluorescein emission was detected between 480 and 580 nm. […]

## CCCCCCCC/C=C\CCCCCCCC(=O)OC[C@H](COP(=O)(O)OCCNC(=O)c1ccc2c(c1)C(=O)OC21c2ccc(O)cc2Oc2cc(O)ccc21)OC(=O)CCCCCCC/C=C\CCCCCCCC.N.N [DOPE-CF]
  Distribution of fluorophore labeled lipid in the marker: clearly higher distribution of DOPE-RhB and DOPE-CF in the rim of the injected formulation
